These results are taken from PubChem BioAssay AID1259407 (Chemical Carcinogenesis Research Information System (CCRIS), 2018).

Active and inactive are the calls of the source. The rule behind the calls is not given here.

This data set relates to CCRIS mutagenicity, Ames/micronucleus/aberration tests. In words: CCRIS mutagenicity studies.
The mark [1] stands for this setting: Test System: AMES SALMONELLA TYPHIMURIUM, Strain/Indicator: TA98, Metabolic Activation: NONE, Method: STANDARD PLATE.
Setting [2] is: Test System: AMES SALMONELLA TYPHIMURIUM, Strain/Indicator: TA98, Metabolic Activation: RAT, LIVER, S-9, AROCLOR 1254, Method: STANDARD PLATE.
Setting [3] is: Test System: AMES SALMONELLA TYPHIMURIUM, Strain/Indicator: TA100, Metabolic Activation: NONE, Method: STANDARD PLATE.
[4] abbreviates: Test System: AMES SALMONELLA TYPHIMURIUM, Strain/Indicator: TA100, Metabolic Activation: RAT, LIVER, S-9, AROCLOR 1254, Method: STANDARD PLATE.
Setting [5] is: Test System: AMES SALMONELLA TYPHIMURIUM, Strain/Indicator: TA1535, Metabolic Activation: NONE, Method: STANDARD PLATE.
[6] abbreviates: Test System: AMES SALMONELLA TYPHIMURIUM, Strain/Indicator: TA1537, Metabolic Activation: NONE, Method: STANDARD PLATE.
Where [7] appears, read: Test System: AMES SALMONELLA TYPHIMURIUM, Strain/Indicator: TA1538, Metabolic Activation: NONE, Method: STANDARD PLATE.
The mark [8] stands for this setting: Test System: AMES SALMONELLA TYPHIMURIUM, Strain/Indicator: TA1535, Metabolic Activation: RAT, LIVER, S-9, AROCLOR 1254, Method: STANDARD PLATE.
The mark [9] stands for this setting: Test System: AMES SALMONELLA TYPHIMURIUM, Strain/Indicator: TA1537, Metabolic Activation: RAT, LIVER, S-9, AROCLOR 1254, Method: STANDARD PLATE.

Turning to `Nc1ncnc2nc[nH]c12`, the mutagenic call (Test System: AMES SALMONELLA TYPHIMURIUM, Strain/Indicator: TA97, Metabolic Activation: NONE, Method: STANDARD PLATE) is “inactive; negative”; the mutagenic call (Test System: AMES SALMONELLA TYPHIMURIUM, Strain/Indicator: TA97, Metabolic Activation: RAT, LIVER, S-9, AROCLOR 1254, Method: STANDARD PLATE) is “inactive; negative”; the mutagenic call under setting [1] was “inactive; negative”; the mutagenic call under setting [2] was “active; positive”; the mutagenic call under setting [3] was “inactive; negative”; the mutagenic call under setting [4] is “inactive; negative”.
With `CC(=O)N(O)c1ccc(Oc2c(Cl)cc(Cl)cc2Cl)cc1`, the mutagenic call under setting [3] is “inactive; negative” and the mutagenic call (Test System: AMES SALMONELLA TYPHIMURIUM, Strain/Indicator: TA100, Metabolic Activation: RAT, LIVER, S-9, KANECLOR 500, Method: STANDARD PLATE) was “active; positive”.
For the molecule `Nc1ncc(/C=C/c2ccc([N+](=O)[O-])o2)nn1`, the mutagenic call reads like this: (Test System: E. COLI, Strain/Indicator: WP2, Metabolic Activation: NONE, Method: SPOT) “active; positive”; (Test System: E. COLI, Strain/Indicator: WP2 UVRA, Metabolic Activation: NONE, Method: SPOT) “active; positive”; (Test System: E. COLI, Strain/Indicator: WP2 UVRA, Metabolic Activation: NONE, Method: STANDARD PLATE) “active; positive”.
For the molecule `CC(=O)Nc1ccc(C)c(N)c1`, the mutagenic call by setting is: (Test System: AMES SALMONELLA TYPHIMURIUM, Strain/Indicator: TA98, Metabolic Activation: NONE, Method: PREINCUBATION) “inactive; negative”; (Test System: AMES SALMONELLA TYPHIMURIUM, Strain/Indicator: TA98, Metabolic Activation: RAT, LIVER, S-9, PHENOBARBITAL AND 5,6-BENZOFLAVONE, Method: PREINCUBATION) “active; positive”.
Regarding `NC(=O)N(CCO)N=O`, the mutagenic call is, setting by setting: (Test System: E. COLI B, Strain/Indicator: H/R30R, Metabolic Activation: NONE) “active; positive”; (Test System: E. COLI B, Strain/Indicator: HS30R, Metabolic Activation: NONE) “active; positive”.
Consider `CNC[C@H](O)[C@@H](O)[C@H](O)[C@H](O)CO.CNC[C@H](O)[C@@H](O)[C@H](O)[C@H](O)CO.O=C([O-])CN(CCN(CC(=O)[O-])CC(=O)[O-])CCN(CC(=O)[O-])[C@H](COCc1ccccc1)C(=O)[O-].[Gd+3].[H+].[H+]`, for which the mutagenic call is “inactive; negative” under setting [1]; “inactive; negative” (Test System: AMES SALMONELLA TYPHIMURIUM, Strain/Indicator: TA98, Metabolic Activation: RAT LIVER S-9, AROCLOR 1254 (10%), Method: STANDARD PLATE); “inactive; negative” under setting [3]; “inactive; negative” (Test System: AMES SALMONELLA TYPHIMURIUM, Strain/Indicator: TA100, Metabolic Activation: RAT LIVER S-9, AROCLOR 1254 (10%), Method: STANDARD PLATE); “inactive; negative” under setting [5]; “inactive; negative” (Test System: AMES SALMONELLA TYPHIMURIUM, Strain/Indicator: TA1535, Metabolic Activation: RAT LIVER S-9, AROCLOR 1254 (10%), Method: STANDARD PLATE). The mutagenic call under setting [6] is “inactive; negative”; the mutagenic call (Test System: AMES SALMONELLA TYPHIMURIUM, Strain/Indicator: TA1537, Metabolic Activation: RAT LIVER S-9, AROCLOR 1254 (10%), Method: STANDARD PLATE) was “inactive; negative”; the mutagenic call under setting [7] is “inactive; negative”; the mutagenic call (Test System: AMES SALMONELLA TYPHIMURIUM, Strain/Indicator: TA1538, Metabolic Activation: RAT LIVER S-9, AROCLOR 1254 (10%), Method: STANDARD PLATE) was “inactive; negative”; the mutagenic call (Test System: ESCHERICHIA COLI, Strain/Indicator: WP2 UVR A-, Metabolic Activation: NONE, Method: STANDARD PLATE) is “inactive; negative”; the mutagenic call (Test System: ESCHERICHIA COLI, Strain/Indicator: WP2 UVR A-, Metabolic Activation: RAT LIVER S-9, AROCLOR 1254 (10%), Method: STANDARD PLATE) is “inactive; negative”.
On to `C[As](C)O`, for which, where the note is “End Point: IN VITRO CHROMOSOMAL ABERRATIONS, Test System: CHINESE HAMSTER V79 CELLS, Metabolic Activation: NONE”, the mutagenic call is “active; positive (structural and ploidy changes)”.
`CC1=CC(=O)CC(C)(C)C1`: the mutagenic call was “active; positive (structural changes)” (End Point: IN VITRO CHROMOSOMAL ABERRATIONS, Test System: CHINESE HAMSTER LUNG FIBROBLAST CELLS (CHL/IU), Metabolic Activation: RAT, LIVER, S-9, PHENOBARBITAL AND 5,6-BENZOFLAVONE); “inactive; negative; precipitation occurred at 1600 ug/ml” (End Point: IN VITRO CHROMOSOMAL ABERRATIONS, Test System: CHO CELLS, Metabolic Activation: NONE); “inactive; negative” (End Point: IN VITRO CHROMOSOMAL ABERRATIONS, Test System: CHO CELLS, Metabolic Activation: RAT, LIVER, S-9, AROCLOR 1254); “inactive; negative” (Test System: AMES SALMONELLA TYPHIMURIUM, Strain/Indicator: TA98, Metabolic Activation: HAMSTER, LIVER, S-9, AROCLOR 1254, Method: STANDARD PLATE); “inactive; negative” under setting [1]; “inactive; negative” under setting [2]. In addition, the mutagenic call is, setting by setting: (Test System: AMES SALMONELLA TYPHIMURIUM, Strain/Indicator: TA100, Metabolic Activation: HAMSTER, LIVER, S-9, AROCLOR 1254, Method: STANDARD PLATE) “inactive; negative”; under setting [3], “inactive; negative”; under setting [4], “inactive; negative”; (Test System: AMES SALMONELLA TYPHIMURIUM, Strain/Indicator: TA1535, Metabolic Activation: HAMSTER, LIVER, S-9, AROCLOR 1254, Method: STANDARD PLATE) “inactive; negative”; under setting [5], “inactive; negative”; under setting [8], “inactive; negative”. The mutagenic call was “inactive; negative” (Test System: AMES SALMONELLA TYPHIMURIUM, Strain/Indicator: TA1537, Metabolic Activation: HAMSTER, LIVER, S-9, AROCLOR 1254, Method: STANDARD PLATE); “inactive; negative” under setting [6]; “inactive; negative” under setting [9]; “inactive; negative” (Test System: MOUSE LYMPHOMA, Strain/Indicator: L5178Y (TK+/TK-), Metabolic Activation: NONE, Method: MICROWELL); “inactive; negative” (Test System: MOUSE LYMPHOMA, Strain/Indicator: L5178Y (TK+/TK-), Metabolic Activation: RAT, LIVER, S-9, AROCLOR 1242 AND AROCLOR 1254 (2:1), Method: SUSPENSION/PLATE); “active; positive” (Test System: UDS RAT HEPATOCYTES, Strain/Indicator: BROMODEOXYURIDINE INCORP, Metabolic Activation: NONE, Method: FLOW CYTOMETRIC ANALYSIS). Further, under “Test System: UDS RAT HEPATOCYTES, Strain/Indicator: THY INCORP, Metabolic Activation: NONE, Method: AUTORADIOGRAPHY”, the mutagenic call is “active; positive”.
With `Cc1c(C)c(N)c(C)c(C)c1N`, the mutagenic call runs as follows: under setting [1], “inactive; negative”; under setting [2], “inactive; negative”; under setting [3], “inactive; negative”; under setting [4], “inactive; negative”; under setting [5], “inactive; negative”; under setting [8], “inactive; negative”. Further, the mutagenic call is “inactive; negative” under setting [6]; “inactive; negative” under setting [9]; “inactive; negative” under setting [7]; “inactive; negative” (Test System: AMES SALMONELLA TYPHIMURIUM, Strain/Indicator: TA1538, Metabolic Activation: RAT, LIVER, S-9, AROCLOR 1254, Method: STANDARD PLATE).
